The results in this text go back to US20220340875A1, “METHODS OF CULTURING AND/OR EXPANDING STEM CELLS AND/OR LINEAGE COMMITTED PROGENITOR CELLS USING AMIDO COMPOUNDS” (IDEAYA BIOSCIENCES, INC., priority 2018, published 2022).

The target in this assay is T1, hAhR (Homo sapiens, UniProt P35869).
T1 construct: Stably integrated DRE-luciferase cell lines were generated by transducing the both cell lines with Cignal XRE luciferase reporter (Qiagen) lentiviral particles; endogenous in cells
T1 sequence (P35869 11-848): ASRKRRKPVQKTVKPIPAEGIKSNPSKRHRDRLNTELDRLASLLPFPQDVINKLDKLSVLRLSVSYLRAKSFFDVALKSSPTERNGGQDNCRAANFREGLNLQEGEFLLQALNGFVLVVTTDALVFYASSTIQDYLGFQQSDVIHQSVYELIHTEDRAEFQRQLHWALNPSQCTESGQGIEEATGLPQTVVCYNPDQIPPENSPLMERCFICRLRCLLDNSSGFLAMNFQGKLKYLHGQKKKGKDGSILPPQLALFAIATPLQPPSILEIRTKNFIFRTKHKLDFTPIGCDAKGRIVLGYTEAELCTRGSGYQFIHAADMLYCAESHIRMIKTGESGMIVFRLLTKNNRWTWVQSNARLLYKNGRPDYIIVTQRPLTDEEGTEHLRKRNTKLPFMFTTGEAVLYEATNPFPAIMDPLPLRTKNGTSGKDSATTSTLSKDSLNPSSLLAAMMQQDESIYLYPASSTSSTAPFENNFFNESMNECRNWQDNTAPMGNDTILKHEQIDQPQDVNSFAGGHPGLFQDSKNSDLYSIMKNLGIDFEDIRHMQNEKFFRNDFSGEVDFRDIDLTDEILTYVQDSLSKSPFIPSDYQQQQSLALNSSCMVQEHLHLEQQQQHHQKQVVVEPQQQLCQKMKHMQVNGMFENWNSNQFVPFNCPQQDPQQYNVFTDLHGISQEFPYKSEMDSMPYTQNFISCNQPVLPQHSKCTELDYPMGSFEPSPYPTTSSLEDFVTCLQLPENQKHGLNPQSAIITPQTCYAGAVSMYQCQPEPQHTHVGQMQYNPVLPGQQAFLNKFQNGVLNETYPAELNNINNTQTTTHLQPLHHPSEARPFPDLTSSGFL
Put plainly: AhR DRE-luciferase reporter transcriptional assay, antagonist mode (TCDD-induced). The following applies: HEPG2 DRE-Luc cells, 3 nM TCDD, 24 hour incubation, relative IC50. In kind it is cell-based. A digest of the protocol:
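HepG2 cells carrying a stably integrated DRE-luciferase reporter, in OptiMEM with 0.5% FBS; semi-log compound doses added with 3 nM TCDD, 24 h incubation, firefly luciferase read-out. Percent maximal activity normalised between vehicle ± TCDD; relative IC50 taken as half-reduction between curve plateaus.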

Molecules are shown by their SMILES. Some results are limits rather than exact numbers.

As to `Cn1nccc1C(=O)Nc1ccc(-c2ccc3nc(C(F)(F)F)ccc3n2)cc1F` [Example 103, N-(2-fluoro-4-(6-(trifluoromethyl)-1,5-naphthyridin-2-yl)phenyl)-1-methyl-1H-pyrazole-5-carboxamide], the IC50 (commonly the concentration that gives 50% inhibition) is under 200 nM.

In turn, `COC(=O)Nc1ccc(-c2ccc3cc(F)ccc3n2)cc1C` [Example 024, methyl (4-(6-fluoroquinolin-2-yl)-2-methylphenyl)carbamate] registered an IC50 of 200 to 500 nM.

`Cc1cc(-c2ccc3cc(OC(F)(F)F)ccc3n2)ccc1NC(=O)c1ccnn1C` [Example 011, 1-methyl-N-(2-methyl-4-(6-(trifluoromethoxy)quinolin-2-yl)phenyl)-1H-pyrazole-5-carboxamide]: the IC50 lay in the range of 200 to 500 nM.

`Cc1cc(-c2ccc3cc(C(F)(F)F)ccc3n2)ccc1NC(=O)c1ccn[nH]1` [Example 204, N-[2-methyl-4-[6-(trifluoromethyl)quinolin-2-yl]phenyl]-1H-pyrazole-5-carboxamide] gave an IC50 of 1000 to 10000 nM.

`Cc1cc(-c2ncc3cc(F)ccc3n2)ccc1NC(=O)c1ccnn1C` [Example 107, N-(4-(6-fluoroquinazolin-2-yl)-2-methylphenyl)-1-methyl-1H-pyrazole-5-carboxamide]: the IC50 is under 200 nM.

As to `Cc1cc(-c2ncc3cc(C(F)(F)F)ccc3n2)ccc1NC(=O)c1ccncc1` [Example 115, N-(2-methyl-4-(6-(trifluoromethyl)quinazolin-2-yl)phenyl)isonicotinamide], the IC50 is under 200 nM.

As to `Cc1cc(-c2ncc3cc(C(F)(F)F)ccc3n2)ccc1N(C)C(=O)c1ccnn1C` [Example 140, N,1-Dimethyl-N-(2-methyl-4-(6-(trifluoromethyl)quinazolin-2-yl)phenyl)-1H-pyrazole-5-carboxamide], the IC50 is under 200 nM.

`Cc1cc(-c2ccc3cc(F)cc(Br)c3n2)ccc1NC(=O)c1ccnn1C` [Example 051, N-(4-(8-bromo-6-fluoroquinolin-2-yl)-2-methylphenyl)-1-methyl-1H-pyrazole-5-carboxamide]: the IC50 is under 200 nM.

The compound `Cc1c(NC(=O)c2ccnn2C)ccc(-c2ncc3nc(C(F)(F)F)ccc3n2)c1C` [Example 190, N-(2,3-dimethyl-4-(6-(trifluoromethyl)pyrido[3,2-d]pyrimidin-2-yl)phenyl)-1-methyl-1H-pyrazole-5-carboxamide] registered an IC50 of 1000 to 10000 nM.

`Cc1cc(-c2ncc3nc(C(F)(F)F)cc(C)c3n2)ccc1NC(=O)c1ccnn1CCO` [Example 172, 1-(2-hydroxyethyl)-N-[2-methyl-4-[8-methyl-6-(trifluoromethyl)pyrido-[3,2-d]pyrimidin-2-yl]phenyl]-1H-pyrazole-5-carboxamide] returned an IC50 of under 200 nM.

The compound `Cc1cc(-c2ccc3cc(F)ccc3n2)ccc1NC(=O)c1cncnc1` [Example 030, N-(4-(6-fluoroquinolin-2-yl)-2-methylphenyl)pyrimidine-5-carboxamide] yielded an IC50 of 1000 to 10000 nM.

The compound `Cc1cc(-c2ccc3cc(F)cc(C)c3n2)ccc1NC(=O)c1ccnn1C` [Example 052, N-(4-(6-fluoro-8-methylquinolin-2-yl)-2-methylphenyl)-1-methyl-1H-pyrazole-5-carboxamide] returned an IC50 of under 200 nM.

`Cc1c(-c2ncc3nc(C(F)(F)F)ccc3n2)ccc(N(C)C(=O)c2ccnn2C)c1C` [Example 191, N-(2,3-dimethyl-4-(6-(trifluoromethyl)pyrido[3,2-d]pyrimidin-2-yl)phenyl)-N,1-dimethyl-1H-pyrazole-5-carboxamide]: the 50% inhibitory concentration (IC50) was in the range of 1000 to 10000 nM.

Compound `Cn1nccc1C(=O)Nc1ccc(-c2ccc3cc(C(F)(F)F)ccc3n2)cc1F` [Example 077, N-(2-fluoro-4-(6-(trifluoromethyl)quinolin-2-yl)phenyl)-1-methyl-1H-pyrazole-5-carboxamide] showed an IC50 of 200 to 500 nM.

`COc1cc(C(=O)N(C)c2ccc(-c3ncc4cc(C(F)(F)F)ccc4n3)cc2C)ccn1` [Example 143, 2-Methoxy-N-methyl-N-(2-methyl-4-(6-(trifluoromethyl)quinazolin-2-yl)phenyl)isonicotinamide] came in with an IC50 of under 200 nM.

As for `Cc1c(NC(=O)c2ccnn2C)ccc(-c2ncc3nc(C(F)(F)F)cc(C)c3n2)c1F` [Example 174, N-(3-fluoro-2-methyl-4-(8-methyl-6-(trifluoromethyl)pyrido[3,2-d]pyrimidin-2-yl)phenyl)-1-methyl-1H-pyrazole-5-carboxamide], the IC50 was under 200 nM.

`Cc1cc(-c2ccc3cc(C(F)(F)F)ccc3n2)cc(F)c1N(C)C(=O)c1ccnn1C` [Example 007, N-(2-fluoro-6-methyl-4-(6-(trifluoromethyl)quinolin-2-yl)phenyl)-N,1-dimethyl-1H-pyrazole-5-carboxamide] showed an IC50 of under 200 nM.

Take `Cc1cc(-c2cc(C)c3ccccc3n2)ccc1NC(=O)c1ccnn1C` [Example 016, 1-Methyl-N-(2-methyl-4-(4-methylquinolin-2-yl)phenyl)-1H-pyrazole-5-carboxamide]: the IC50 is 500 to 1000 nM.

The compound `Cc1cc(-c2ccc3nc(C(F)(F)F)ncc3n2)ccc1NC(=O)c1ccnn1C` [Example 139, 1-methyl-N-(2-methyl-4-(2-(trifluoromethyl)pyrido[3,2-d]pyrimidin-6-yl)phenyl)-1H-pyrazole-5-carboxamide] came in with an IC50 of 500 to 1000 nM.

With `Cc1cc(-c2ccc3cccc(F)c3n2)ccc1NC(=O)OC(C)(C)C` [Example 022, tert-butyl (4-(8-fluoroquinolin-2-yl)-2-methylphenyl)carbamate], the IC50 lay in the range of 1000 to 10000 nM.

Compound `Cc1cc(-c2ccc3cc(N)ccc3n2)ccc1NC(=O)c1ccnn1C` [Example 075, N-(4-(6-aminoquinolin-2-yl)-2-methylphenyl)-1-methyl-1H-pyrazole-5-carboxamide] had an IC50 of 1000 to 10000 nM.

As to `Cc1cc(-c2ccc3cc(C4CC4)ccc3n2)ccc1NC(=O)c1ccnn1C` [Example 068, N-(4-(6-cyclopropylquinolin-2-yl)-2-methylphenyl)-1-methyl-1H-pyrazole-5-carboxamide], the IC50 lay in the range of 1000 to 10000 nM.

As to `Cc1cc(-c2ncc3cc(C(F)(F)F)ccc3n2)ccc1N(C)C(=O)N(C)C` [Example 129, 1,1,3-trimethyl-3-(2-methyl-4-(6-(trifluoromethyl)quinazolin-2-yl)phenyl)urea], the IC50 was in the range of 200 to 500 nM.

`Cn1nccc1C(=O)Nc1ccc(-c2cnc3ccccc3n2)cc1` [Example 003, 1-methyl-N-(4-(quinoxalin-2-yl)phenyl)-1H-pyrazole-5-carboxamide] displayed an IC50 of 500 to 1000 nM.

The compound `Cc1cc(-c2ccc3cccc(C)c3n2)ccc1NC(=O)c1ccnn1C` [Example 020, 1-Methyl-N-(2-methyl-4-(8-methylquinolin-2-yl)phenyl)-1H-pyrazole-5-carboxamide] registered an IC50 of under 200 nM.

On to `Cc1cc(-c2nc3cc(C(F)(F)F)ccc3s2)ccc1NC(=O)c1ccnn1C` [Example 100, 1-methyl-N-(2-methyl-4-(5-(trifluoromethyl)benzo[d]thiazol-2-yl)phenyl)-1H-pyrazole-5-carboxamide], for which the IC50 lay within 200 to 500 nM.

The compound `Cc1cc(-c2ncc3cc(F)cc(C)c3n2)ccc1NC(=O)c1ccnn1C` [Example 109, N-(4-(6-fluoro-8-methylquinazolin-2-yl)-2-methylphenyl)-1-methyl-1H-pyrazole-5-carboxamide] showed an IC50 of under 200 nM.

`Cc1c(-c2ncc3nc(C(F)(F)F)cc(C)c3n2)ccc(N(C)C(=O)c2ccnn2C)c1F` [Example 177, N-(2-fluoro-3-methyl-4-(8-methyl-6-(trifluoromethyl)pyrido[3,2-d]pyrimidin-2-yl)phenyl)-N,1-dimethyl-1H-pyrazole-5-carboxamide] displayed an IC50 of under 200 nM.

The compound `Cc1cc(-c2ncc3nc(C(F)(F)F)cc(C)c3n2)ccc1N(C)C(=O)c1ccnn1CC(C)(C)O` [Example 224, 1-(2-hydroxy-2-methylpropyl)-N-methyl-N-(2-methyl-4-(8-methyl-6-(trifluoromethyl)pyrido[3,2-d]pyrimidin-2-yl)phenyl)-1H-pyrazole-5-carboxamide] showed an IC50 of 200 to 500 nM.

`Cc1cc(-c2ccc3cc(C#N)ccc3n2)ccc1NC(=O)c1ccnn1C` [Example 073, N-(4-(6-cyanoquinolin-2-yl)-2-methylphenyl)-1-methyl-1H-pyrazole-5-carboxamide] registered an IC50 of under 200 nM.

With `Cc1cc(N(C)C(=O)c2ccnn2C)c(C)cc1-c1ncc2nc(C(F)(F)F)ccc2n1` [Example 188, N-(2,5-dimethyl-4-(6-(trifluoromethyl)pyrido[3,2-d]pyrimidin-2-yl)phenyl)-N,1-dimethyl-1H-pyrazole-5-carboxamide], the IC50 was under 200 nM.

`Cc1cc(-c2ccc3cc(F)ccc3n2)ccc1NC(=O)c1cccnc1` [Example 027, N-(4-(6-fluoroquinolin-2-yl)-2-methylphenyl)nicotinamide]: the IC50 fell in the range of 500 to 1000 nM.
